Columns and labels:
MV411 cells = experiment: PI flow cytometry, sub-G1 cells, MV411; type: cell-based; conditions: DMSO 72 h + 48 h, 2 μM nutlin-3a last 48 h
Experimental: (§1) Cell cycle distribution analysis was performed on a Becton Dickinson FACScan flow cytometer or FACSCalibur (BD Biosciences) following staining with propidium iodide (PI) or dual labeling with BrdU and PI[36]. These assays were analyzed using CellQuest Pro (BD Biosciences).

U2OS cells [1] = experiment: PI flow cytometry, sub-G1 cells, U2OS; type: cell-based; conditions: DMSO 72 h + 48 h, 2 μM nutlin-3a last 48 h
Experimental: as §1

ARN8 xenograft = experiment: ARN8 subcutaneous xenograft; type: in vivo; conditions: ARN8 xenograft; (R)-HZ05 75 mg/kg q.d. s.c. or nutlin-3a 50 mg/kg b.i.d. orally
Experimental: All animal xenograft experiments were approved by the Norwegian Animal Research Authority and conducted according to The European Convention for the Protection of Vertebrates Used for Scientific Purposes. […] The health status and weight of the mice were monitored daily and they were randomized in a non-blinded manner into 4 groups when tumor volumes reached 30–40 mm^3. […] Tumor volumes were measured every second day by a digital caliper using the following ellipsoid formula: Volume = π (length × width × height)/6.
To determine the efficacy of (R)-HZ05 in combination with nutlin-3a, 4 groups of NSG mice (n = 8 per group) were subcutaneously injected in the flank region with a single 100 μL injection of 2 × 10^6 ARN8 cells in a solution of PBS:Matrigel (volume ratio 3:1). Treatment was initiated when tumors reached ~50 mm^3. The maximum tolerated dose for this combination of drugs was previously determined for the strain we used. The endpoint of the experiment was determined by the tumor size ([…]) weight loss, and general condition of the mice according to The Norwegian Animal Research Authority.

U2OS cells [2] = experiment: Annexin V/PI apoptosis flow cytometry; type: cell-based; conditions: HZ05 72 h, washed, nutlin-3a 48 h
Experimental: Fig. 7 HZ05 increases p53 levels in S-phase cells. a U2OS cells were treated with DMSO (vehicle) or HZ05 (1 μM) for 72 h. The upper left panel is a representative dot plot showing the gating strategy for cells expressing high p53 levels (blue: HZ05 treated and red: DMSO treated). […] A representative histogram of the fluorescence intensity of FITC-p53 in S-phase cells is shown in the lower right panel. Bar graphs show the average of three independent experiments. Unpaired t-test was employed to assess statistical significance using GraphPad Prism version 7 (****p < 0.0001 and ***p < 0.001). b U2OS cells were pretreated with HZ05 for 72 h, washed with medium containing DMSO or nutlin-3a, and then provided with fresh medium containing DMSO or nutlin-3a. After an additional 48 h, Annexin V and PI staining was analyzed by flow cytometry. The average of two independent experiments ± SD is shown. c Hypothetical model describing the combination of DHODH inhibition with mdm2 antagonists. […] Inhibition of p53 degradation in the form of an mdm2 antagonist leads to death of cells in S-phase
For the detection of apoptotic cells, the Annexin V-FITC Apoptosis detection kit (Ab#14085) was used with analysis conducted using FlowJo software V10.2.

[3] = Pharmacokinetic study, nutlin-3a single or co-administered with (R)-HZ05; type: in vivo, NOD-SCID mice; conditions: mice; nutlin-3a 50 mg kg-1 oral + (R)-HZ05 75 mg kg-1 s.c.
Experimental: collected from the retro-orbital plexus of three mice per group per time point at the following times: pre-dose, 0.08, 0.25, 0.5, 1, 2, 4, 8, and 24 h. Samples were collected into tubes with 20 % potassium-EDTA solution. Plasma was separated at 4000 rpm for 10 minutes at 4 °C and stored at -70 °C until analysis. 25 µL of study sample or spiked plasma calibration standards were added to individual tubes followed by 100 µL of Glipizide at 500 ng mL-1 as an internal standard. Samples were centrifuged at 4000 rpm at 4 °C for 10 minutes. 100 µL of cleared supernatant was transferred to 96-well plates and analyzed using a Waters ACQUITY UPLC connected to an AB Sciex API 4000 QTRAP in MRM mode with positive electrospray ionization with an ion spray voltage of 5500 V. The mobile phase was A: 0.1 % formic acid in acetonitrile and B: 0.1 % formic acid in water through a phenomenex Kinetex EVO C18 (5 µm, 100 × 4.6 mm) kept at 45 °C. […]
Samples were centrifuged at 4000 rpm at 4 °C for 10 minutes. 100 µL of cleared supernatant was transferred to 96-well plates and analyzed using a Waters ACQUITY UPLC connected to an AB Sciex API 4000 QTRAP in MRM mode with positive electrospray ionization with an ion spray voltage of 5500 V. The mobile phase was A: 0.1 % formic acid in acetonitrile and B: 0.1 % formic acid in water through a phenomenex Kinetex EVO C18 (5 µm, 100 × 4.6 mm) kept at 45 °C. […]

ARN8 cells = experiment: PI flow cytometry, sub-G1 cells, ARN8; type: cell-based, human; conditions: ARN8 72 h
Experimental: as §1

HNDF cells = experiment: PI flow cytometry, sub-G1 cells, HNDF; type: cell-based, human; conditions: DMSO 72 h + 48 h, 2 μM nutlin-3a last 48 h
Experimental: as §1

COc1ccc(C2=N[C@@H](c3ccc(Cl)cc3)[C@@H](c3ccc(Cl)cc3)N2C(=O)N2CCNC(=O)C2)c(OC(C)C)c1 [nutlin-3a, reference compound]
sub-G1 cells (MV411 cells): 37.2% | sub-G1 cells (U2OS cells [1]): 1.1% | xenograft tumor growth, single agent (ARN8 xenograft): ineffective | effect of nutlin-3a after HZ05 pre-treatment and wash-out (U2OS cells [2]): triggered cell death | half-life on co-administration with (R)-HZ05 [3]: not prolonged | DMSO control subtracted effect (cells in sub-G1) (ARN8 cells; HZ05 0 nM + nutlin-3a 5 µM): 0.05 | DMSO control subtracted effect (cells in sub-G1) (ARN8 cells; HZ05 0 nM + nutlin-3a 10 µM): 0.07 | DMSO control subtracted effect (cells in sub-G1) (ARN8 cells; HZ05 0 nM + nutlin-3a 15 µM): 0.12 | DMSO control subtracted effect (cells in sub-G1) (ARN8 cells; HZ05 0 nM + nutlin-3a […]): 0.10 | sub-G1 cells (ARN8 cells; nutlin-3a 1 μM): 0.8% | sub-G1 cells (ARN8 cells; nutlin-3a 2.5 μM): 1.59% | sub-G1 cells (ARN8 cells; nutlin-3a 5 μM): 3.52% | sub-G1 cells (HNDF cells): 1.2%
